The values below come from paper PMC7796031, “Studies of Coumarin Derivatives for Constitutive Androstane Receptor (CAR) Activation” (Molecules, 2020).

Entries after “also recorded” stand apart in the source; their conditions may differ.

The first assay addresses T1, Constitutive androstane receptor (CAR) (Homo sapiens, UniProt Q14994).
T1 construct: The pGL4-gtPBREM plasmid was transfected into Hep3B cells; endogenous in cells
T1 sequence (Q14994 1-352): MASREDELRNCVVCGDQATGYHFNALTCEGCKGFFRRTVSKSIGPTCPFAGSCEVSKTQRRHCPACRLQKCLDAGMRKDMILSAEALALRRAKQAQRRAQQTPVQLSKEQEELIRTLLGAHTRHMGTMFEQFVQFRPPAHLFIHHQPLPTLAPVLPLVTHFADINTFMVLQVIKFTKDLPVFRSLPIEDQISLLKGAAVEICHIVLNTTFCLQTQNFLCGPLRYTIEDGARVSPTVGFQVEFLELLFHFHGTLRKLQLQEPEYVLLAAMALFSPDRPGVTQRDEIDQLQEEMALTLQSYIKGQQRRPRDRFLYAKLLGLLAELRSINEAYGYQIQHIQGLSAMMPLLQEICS
Put plainly: In vitro CAR activation screening assay (UGT1A1 promoter gtPBREM-pGL4 luciferase reporter in Hep3B-gtPBREM cells). Type of assay: cell-based. The following applies: 10 μM. From the text:
Until now, there is no commercially available high throughput screening method for CAR activation. Traditionally, CAR activation can be detected in western blots by its downstream signals such as UGT1A1, MRP2 or CYP2B6. […] However, this method was slow and pricy. In order to rapidly screen all the compounds for CAR activation at less cost, an in vitro CAR activation screening assay was developed: DNA was extracted from Hep3B cells and UGT1A1 promoter was obtained using PCR amplification. Ligation between UGT1A1 promoter and pGL4 vector was performed and the plasmid was amplified via E. coli replication. The desired plasmid was extracted from E. coli and transfected into Hep3B. The desired colony bearing UGT1A1 promoter-pGL4 plasmid was selected by neomycin. CAR activation was measured by adding tested compounds to Hep3B for several hours and luminescence was measured. Higher activation will get higher luminescence readout. This assay system was validated with two different CAR agonists: CITCO (direct agonist) and scoparone (an indirect agonist). […] Different concentration of scoparone at 1, 5, 10 and 20 μM had been tested either for luciferase assay or downstream UGT1A1 and MRP2 expression (data not shown) and 10 μM was selected to be the best condition for the following work.
After successfully establishing the in vitro assay, all of the coumarin compounds were subjected to the screening (at 10 μM) and their SAR was discussed. Although the reporter system can successfully identify CAR-activating compounds under 8 h and display better efficiency and sensitivity compared with western blots, it only presented a medium luciferase response. According to previous studies, CITCO was reported to only moderately enhance human CAR (less than 2-fold), compared with the enhance provided by TCPOBOP for murine CAR (5- to 10-fold) in luciferase reporter assays. […] Another possibility for the medium response in our reporter system might be the contribution of the whole gtPBREM element which might include response-suppressive elements that was used and the single nucleotide variation of DR3 element which was reported to slightly reduce the original UGT1A1 activity.
The genomic DNA was isolated from Hep3B cells using Wizard® Genomic DNA Purification Kit (Promega, Fitchburg, WI, USA). The promoter region of UGT1A1 gene, gtPBREM element, was amplified by AccuPrime^TM Taq DNA Polymerase High Fidelity Kit (Invitrogen, MA, USA). The sequence of the amplified element was confirmed by DNA sequencing company and cloned into pGL4 luciferase reporter vector. The pGL4-gtPBREM plasmid was transfected into Hep3B cells. The stable pGL4-gtPBREM transfected Hep3B cells, Hep3B-gtPBREM cells, were established after G418 selection. The luciferase activity represented of CAR activation ability was measured using individual established clone. Further, CAR-shRNA was obtained from the Genomic Research Center and transfected into Hep3B-gtPBREM cells. The transient transfected shCAR-Hep3B-gtPBREM cells were used for further luciferase assays.
The Hep3B-gtPBREM cells and shCAR-Hep3B-gtPBREM cells (1.5 × 10^5 cells/well) were seeded into 12-well plates for overnight then pre-determined concentration compounds were added for desired time. After treatment, transfected cells were washed twice in PBS, lysated with 1× passive lysis buffer and luciferase intensity of equal amount of cell lysate was measured by a Synergy HT Multi-Mode Microplate Reader (BioTek, Winooski, VT, USA).
(In general: A reporter such as luciferase makes a cellular process visible.)
Turning to `COc1cc2oc(=O)ccc2cc1OC1OC(CO)C(O)C(O)C1O` (centres unmarked) [Compound 52, isoscopolin], the “CAR activation compared with scoparone” value is “superior CAR activating activity than scoparone”.
The same measure, in the same setting: to `COc1cc2ccc(=O)oc2cc1O[C@@H]1O[C@H](CO)[C@@H](O)[C@H](O)[C@H]1O` [Compound 53, scopolin] belongs “superior CAR activating activity than scoparone”.
For `COc1cc(OC)c2ccc(=O)oc2c1O` [Compound 57, 5,7-dimethoxy-8-hydroxycoumarin], the “CAR activation compared with scoparone” value is recorded as “comparable CAR activation effects to scoparone; also recorded: superior CAR activating activity than scoparone”.
On the same count and under the same terms, for `COc1cc2ccc(=O)oc2c(OC)c1OC` [Compound 58, 6,7,8-trimethoxycoumarin] the value was “comparable CAR activation effects to scoparone”; for `COc1cc2ccc(=O)oc2c2c1OCO2` [Compound 59, 6-Methoxy-7,8-methylenedioxycoumarin], “superior CAR activating activity than scoparone”; for `COc1c2c(c3oc(=O)ccc3c1OC)OCO2` [Compound 60, 5,6-dimethoxy-7,8-methylenedioxycoumarin], “good activity; also recorded: superior CAR activating activity than scoparone”.

The same assay, now with this note: 10 μM; compared to scoparone.
For `COc1cc2ccc(=O)oc2c2c1OCO2` [Compound 59, 6-Methoxy-7,8-methylenedioxycoumarin], the “increased CAR activation fold” value was found to be 36%.

The same assay, now with this note: Table 1; 10 μM; (luminescence of compound − luminescence of scoparone)/luminescence of scoparone × 100%; read-out: CAR Activation Fold.
Consider `O=c1ccc2c(O)cccc2o1` [Compound 1, 5-hydroxycoumarin], for which the activation at 10 µM was determined as 6%.
On the same count and under the same terms, for `COc1cccc2oc(=O)ccc12` [Compound 2, 5-methoxycoumarin] the value was -20%; for `CC(=O)Oc1cccc2oc(=O)ccc12` [Compound 3], -32%.
The same measure, in the same setting: to `C=CCOc1cccc2oc(=O)ccc12` [Compound 4] belongs -15%; to `CCCCOc1cccc2oc(=O)ccc12` [Compound 5], -9%; to `CC(C)=CCCC(C)=CCOc1cccc2oc(=O)ccc12` [Compound 7], -18%.
Consider `CC(C)=CCCC(C)=CCCC(C)=CCOc1cccc2oc(=O)ccc12` [Compound 8], for which the activation at 10 µM is 2%.
For the compound `O=c1ccc2cc(O)ccc2o1` [Compound 9, 6-hydroxycoumarin], the activation at 10 µM is -8%.
As to `COc1ccc2oc(=O)ccc2c1` [Compound 10, 6-methoxycoumarin], the activation at 10 µM came to 32%.
Still for that read-out and setting: for `CC(=O)Oc1ccc2oc(=O)ccc2c1` [Compound 12] the value was -22%; for `C=CCOc1ccc2oc(=O)ccc2c1` [Compound 13], -17%; for `CCCCOc1ccc2oc(=O)ccc2c1` [Compound 14], 37%.
On the same count and under the same terms, for `CC(C)=CCOc1ccc2oc(=O)ccc2c1` [Compound 15] the value was 22%; for `CC(C)=CCCC(C)=CCOc1ccc2oc(=O)ccc2c1` [Compound 16], 18%; for `CC(C)=CCCC(C)=CCCC(C)=CCOc1ccc2oc(=O)ccc2c1` [Compound 17], -41%.
Still for that read-out and setting: to `O=c1ccc2ccc(O)cc2o1` [Compound 18, umbelliferone] belongs -1%; to `COc1ccc2ccc(=O)oc2c1` [Compound 19, 7-methoxycoumarin], -9%; to `CC(=O)Oc1ccc2ccc(=O)oc2c1` [Compound 21], -37%.
On to `CC(C)=CCOc1ccc2ccc(=O)oc2c1` [Compound 24], for which the activation at 10 µM is -35%.
On the same count and under the same terms, for `CC(C)=CCCC(C)=CCOc1ccc2ccc(=O)oc2c1` [Compound 25, aurapten] the value was -13%.
Regarding `CC(C)=CCCC(C)=CCCC(C)=CCOc1ccc2ccc(=O)oc2c1` [Compound 26], the activation at 10 µM is -29%.
Same read-out and setting: for `O=c1ccc2cccc(O)c2o1` [Compound 27, 8-hydroxycoumarin] the value was 40%.
With `COc1cccc2ccc(=O)oc12` [Compound 28, 8-methoxycoumarin], the activation at 10 µM was -8%.
On the same count and under the same terms, for `CC(=O)Oc1cccc2ccc(=O)oc12` [Compound 29] the value was -33%; for `C=CCOc1cccc2ccc(=O)oc12` [Compound 30], -34%.
Same read-out and setting: for `CCCCOc1cccc2ccc(=O)oc12` [Compound 31, 8-n-Butoxycoumarin] the value was 4%.
Same read-out and setting: to `CC(C)=CCOc1cccc2ccc(=O)oc12` [Compound 32] belongs 2%; to `CC(C)=CCCC(C)=CCOc1cccc2ccc(=O)oc12` [Compound 33], -30%.
`CC(C)=CCCC(C)=CCCC(C)=CCOc1cccc2ccc(=O)oc12` [Compound 34]: the activation at 10 µM was 19%.

Still in this assay, the particulars now being: Table 2; 10 μM; (luminescence of compound − luminescence of scoparone)/luminescence of scoparone × 100%; read-out: CAR Activation Fold.
Turning to `O=c1ccc2cc(O)c(O)cc2o1` [Compound 35, esculetin], the activation at 10 µM was -22%.
Same read-out and setting: for `Cc1cc2ccc(=O)oc2cc1C` [Compound 36] the value was -17%; for `COc1cc2oc(=O)ccc2cc1O` [Compound 37, isoscopoletin], -10%; for `COc1cc2ccc(=O)oc2cc1O` [Compound 38, scopoletin], -1%.
Still for that read-out and setting: for `O=c1ccc2cc3c(cc2o1)OCO3` [Compound 40, ayapin] the value was 7%; for `O=c1ccc2cc3c(cc2o1)OCCO3` [Compound 41], -50%.
Consider `CCOc1cc2ccc(=O)oc2cc1OCC` [Compound 42], for which the activation at 10 µM was -26%.
Same read-out and setting: for `CC(=O)Oc1cc2ccc(=O)oc2cc1OC(C)=O` [Compound 43] the value was -11%; for `CCCOc1cc2ccc(=O)oc2cc1OCCC` [Compound 45], -37%.
Same read-out and setting: for `CC(C)CCOc1cc2ccc(=O)oc2cc1OCCC(C)C` [Compound 48, 6,7-Di-isopentoxycoumarin] the value was -61%; for `CCCCCCOc1cc2ccc(=O)oc2cc1OCCCCCC` [Compound 49, 6,7-Dihexoxycoumarin], -5%.
In the case of `CC(C)=CCC/C(C)=C/COc1cc2ccc(=O)oc2cc1OC/C=C(\C)CCC=C(C)C` [Compound 51, 6,7-Digeranoxycoumarin], the activation at 10 µM was -32%.
On the same count and under the same terms, to `COc1cc2oc(=O)ccc2cc1OC1OC(CO)C(O)C(O)C1O` (centres unmarked) [Compound 52, isoscopolin] belongs 35%; to `COc1cc2ccc(=O)oc2cc1O[C@@H]1O[C@H](CO)[C@@H](O)[C@H](O)[C@H]1O` [Compound 53, scopolin], 17%.

The assay is the same for the next values; noted with them: Table 3; 10 μM; (luminescence of compound − luminescence of scoparone)/luminescence of scoparone × 100%; read-out: CAR Activation Fold.
For `COc1cc2oc(=O)ccc2c(OC)c1OC` [Compound 54, 5,6,7-trimethoxycoumarin], the activation at 10 µM is -19%.
The same measure, in the same setting: for `COc1cc(OC)c2ccc(=O)oc2c1OC` [Compound 56] the value was -14%.
The same measure, in the same setting: for `COc1cc(OC)c2ccc(=O)oc2c1O` [Compound 57, 5,7-dimethoxy-8-hydroxycoumarin] the value was 2%; for `COc1cc2ccc(=O)oc2c(OC)c1OC` [Compound 58, 6,7,8-trimethoxycoumarin], 0%.
Same read-out and setting: to `COc1cc2ccc(=O)oc2c2c1OCO2` [Compound 59, 6-Methoxy-7,8-methylenedioxycoumarin] belongs 36%.
For the compound `COc1c2c(c3oc(=O)ccc3c1OC)OCO2` [Compound 60, 5,6-dimethoxy-7,8-methylenedioxycoumarin], the activation at 10 µM amounted to 12%.

Staying with this assay, now noted: read-out: CAR Activation Fold.
For `C=CCOc1ccc2ccc(=O)oc2c1` [Compound 22], the activation at 10 µM was -46%.
On the same count and under the same terms, for `CCCCOc1ccc2ccc(=O)oc2c1` [Compound 23] the value was -51%; for `COc1cc2oc(=O)ccc2c(OC)c1O` [Compound 55, fraxinol], -17%.
